These results are taken from patent US9540343B2 (Gilead Sciences, Inc., priority 2011, dated 2017).

One may read the CC50 as the concentration giving 50% cytotoxicity. A higher CC50 goes with better tolerance by the cells. One may read the inhibition as the drop in the measured response relative to a control, in per cent.

The nature of one data set: in vitro. To be noted: human, uninfected MT-4 cells, CC50 (nM), same protocol as Test A, CellTiter-Glo. A digest of the protocol:
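Cytoprotection read-out: CellTiter-Glo chemiluminescence after 5 days at 37 °C of HIV-IIIb-infected MT-4 cells (m.o.i. 0.003) with compound in 10-point 3-fold dilutions, quadruplicate, 10% FBS. Cytotoxicity (CC50) measured identically without virus.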
A general note: In ATP-based viability assays light output follows the ATP content of the culture.

A further data set deals with HIV-IIIb. Nature of the data set: Test A: Antiviral assay in MT4 cells. It counts as cell-based, HIV-1. The following applies: Human immunodeficiency virus 1, IIIB, MT4, 120 h, read-out: % inhibition at 2 μM, percent inhibition of virus-induced cell killing, from dose response curve at 2 uM drug; MT-4 cells infected with HIV-IIIb, 5 days, CellTiter-Glo.

`O=C(Cn1nc(C(F)(F)F)c2c1CCCC2)N[C@H](Cc1cc(F)cc(F)c1)c1ncncc1-c1ccc(Cl)cc1` [Example 383, (R)—N-(1-(5-(4-chlorophenyl)pyrimidin-4-yl)-2-(3,5-difluorophenyl)ethyl)-2-(3-(trifluoromethyl)-4,5,6,7-tetrahydro-1H-indazol-1-yl)acetamide] returned a CC50 at 5 days in “in vitro” of 15500 nM. Moreover, the inhibition at 2 µM in the data set with HIV-IIIb amounted to 32%.
Consider `NC(=O)c1cc(-c2cccnc2[C@H](Cc2cc(F)cc(F)c2)NC(=O)Cn2nc(C(F)F)c3c2C(O)CCC3)ccc1F` (stereo partly drawn) [Example 384, 5-(2-((1S)-1-(2-(3-(difluoromethyl)-7-hydroxy-4,5,6,7-tetrahydro-1H-indazol-1-yl)acetamido)-2-(3,5-difluorophenyl)ethyl)pyridin-3-yl)-2-fluorobenzamide], for which the CC50 at 5 days in the data set “in vitro” was over 53200 nM. Further, the inhibition at 2 µM with HIV-IIIb was 97%.
For `Cc1cc(C(F)(F)F)nn1CC(=O)N[C@@H](Cc1cc(F)cc(F)c1)c1ncccc1-c1ccc(F)c(C(N)=O)c1` [Example 385, (S)-5-(2-(2-(3,5-difluorophenyl)-1-(2-(5-methyl-3-(trifluoromethyl)-1H-pyrazol-1-yl)acetamido)ethyl)pyridin-3-yl)-2-fluorobenzamide], the CC50 at 5 days in “in vitro” is over 53200 nM. Also, the inhibition at 2 µM in the data set with HIV-IIIb was found to be 40%.
Taken in the same sequence, the figures for `NC(=O)c1cc(-c2cccnc2[C@H](Cc2cc(F)cc(F)c2)NC(=O)Cn2nc(C(F)(F)F)c3c2CC(F)(F)CC3)ccc1F` [Example 387, (S)-5-(2-(1-(2-(6,6-difluoro-3-(trifluoromethyl)-4,5,6,7-tetrahydro-1H-indazol-1-yl)acetamido)-2-(3,5-difluorophenyl)ethyl)pyridin-3-yl)-2-fluorobenzamide] were 21200 nM and 61%.
On the same counts, the results for `CN1CCc2c(C(F)(F)F)nn(CC(=O)N[C@@H](Cc3cc(F)cc(F)c3)c3ncccc3-c3ccc(F)c(C(N)=O)c3)c2C1` [Example 388, (S)-5-(2-(2-(3,5-difluorophenyl)-1-(2-(6-methyl-3-(trifluoromethyl)-4,5,6,7-tetrahydro-1H-pyrazolo[3,4-c]pyridin-1-yl)acetamido)ethyl)pyridin-3-yl)-2-fluorobenzamide] are over 53200 nM and 54%.
Taken in the same sequence, the figures for `CC(=O)c1cn(CC(=O)N[C@@H](Cc2cc(F)cc(F)c2)c2ncccc2-c2ccc(F)c(C(N)=O)c2)nc1C(F)(F)F` [Example 389B, (S)-5-(2-(1-(2-(4-acetyl-3-(trifluoromethyl)-1H-pyrazol-1-yl)acetamido)-2-(3,5-difluorophenyl)ethyl)pyridin-3-yl)-2-fluorobenzamide] were over 53200 nM and 2%.
`NC(=O)c1cc(-c2cccnc2C(Cc2cc(F)cc(F)c2)NC(=O)Cn2nc(C(F)F)c3c2C(F)(F)CCC3F)ccc1F` (stereo not shown) [Example 390, 5-(2-(1-(2-(3-(difluoromethyl)-4,7,7-trifluoro-4,5,6,7-tetrahydro-1H-indazol-1-yl)acetamido)-2-(3,5-difluorophenyl)ethyl)pyridin-3-yl)-2-fluorobenzamide] registered a CC50 at 5 days in the data set “in vitro” of 21600 nM. Moreover, in the data set with HIV-IIIb, the inhibition at 2 µM is 99%.
On to `NC(=O)c1cc(-c2cccnc2[C@H](Cc2cc(F)cc(F)c2)NC(=O)Cn2nc(C(F)(F)F)c3c2C(O)CC3)ccc1F` (stereo partly drawn) [Example 391, 5-(2-((1S)-2-(3,5-difluorophenyl)-1-(2-(6-hydroxy-3-(trifluoromethyl)-5,6-dihydrocyclopenta[c]pyrazol-1(4H)-yl)acetamido)ethyl)pyridin-3-yl)-2-fluorobenzamide], for which, in “in vitro”, the CC50 at 5 days was 44800 nM. For the same compound, the inhibition at 2 µM with HIV-IIIb is 60%.
Consider `NC(=O)c1cc(-c2cccnc2C(Cc2cc(F)cc(F)c2)NC(=O)Cn2nc(C(F)F)c3c2C2CC2CC3)ccc1F` (stereo not shown) [Example 392, 5-(2-(1-(2-(3-(difluoromethyl)-5,5a,6,6a-tetrahydrocyclopropa[g]indazol-1(4H)-yl)acetamido)-2-(3,5-difluorophenyl)ethyl)pyridin-3-yl)-2-fluorobenzamide], for which the midpoint of cytotoxicity in “in vitro”, the CC50 at 5 days, lay at 19100 nM. Besides, in the data set with HIV-IIIb, the inhibition at 2 µM turned out to be 105%.
Taken in the same sequence, the figures for `CCCCNS(=O)(=O)c1ccc(-c2cccnc2[C@H](Cc2cc(F)cc(F)c2)NC(=O)Cn2nc(C(F)F)c3c2C(F)(F)C2CC32)cc1` (stereo partly drawn) [Example 393, (S)—N-(1-(3-(4-(N-butylsulfamoyl)phenyl)-pyridin-2-yl)-2-(3,5-difluorophenyl)ethyl)-2-(3-(difluoromethyl)-5,6-dihydro-4,5-(methano)-6,6-difluoro-cyclopenta[c]pyrazol-1(4H)-yl)acetamide] were 26100 nM and 54%.
Turning to `CC(=O)Nc1ccc(-c2cccnc2[C@H](Cc2cc(F)cc(F)c2)NC(=O)Cc2c[nH]c3ccc(F)cc23)cc1` [Example 394], the CC50 at 5 days in the data set “in vitro” was determined as 30800 nM. In the data set with HIV-IIIb, the inhibition at 2 µM was 14%.
Taken in the same sequence, the figures for `O=C(Cc1c[nH]c2ccc(F)cc12)N[C@@H](Cc1cc(F)cc(F)c1)c1ncccc1-c1ccccc1Cl` [Example 395, (S)—N-(1-(3-(2-chlorophenyl)pyridin-2-yl)-2-(3,5-difluorophenyl)ethyl)-2-(5-fluoro-1H-indol-3-yl)acetamide] were 11600 nM and 41%.
Compound `O=C(Cc1c[nH]c2ccc(F)cc12)N[C@@H](Cc1cc(F)cc(F)c1)c1ncccc1-c1ccc(Cl)c(Cl)c1` [Example 396, (S)—N-(1-(3-(3,4-dichlorophenyl)pyridin-2-yl)-2-(3,5-difluorophenyl)ethyl)-2-(5-fluoro-1H-indol-3-yl)acetamide] returned a CC50 at 5 days in “in vitro” of 10000 nM. Also, the inhibition at 2 µM in the data set on HIV-IIIb is 39%.
The compound `NC(=O)c1cc(-c2cccnc2[C@H](Cc2cc(F)cc(F)c2)NC(=O)Cn2nc(C(F)F)c3c2C2CC(C2)C3=O)ccc1F` [Example 397, (S)-5-(2-(2-(3,5-difluorophenyl)-1-(2-(4,5,6,7-tetrahydro-3-difluoromethyl-4-oxo-5,7-(methano)indazol-1-yl)acetamido)ethyl)pyridin-3-yl)-2-fluorobenzamide] had a CC50 at 5 days in the data set “in vitro” of over 53200 nM. Also, the inhibition at 2 µM with HIV-IIIb was found to be 26%.
Take `O=C(Cc1c[nH]c2ccc(F)cc12)N[C@@H](Cc1cc(F)cc(F)c1)c1ncccc1-c1ccccc1-c1ccccc1` [Example 398, (S)—N-(1-(3-(biphenyl-2-yl)pyridin-2-yl)-2-(3,5-difluorophenyl)ethyl)-2-(5-fluoro-1H-indol-3-yl)acetamide]: the midpoint of cytotoxicity in the data set “in vitro”, the CC50 at 5 days, lay at 9830 nM. The inhibition at 2 µM in the data set on HIV-IIIb was 2%.
On to `O=C1Cc2cc(-c3cccnc3[C@H](Cc3cc(F)cc(F)c3)NC(=O)Cn3nc(C(F)F)c4c3C(F)(F)C3CC43)ccc2N1` (stereo partly drawn) [Example 400, (S)—N-(1-(3-(oxindole-5-yl)-pyridin-2-yl)-2-(3,5-difluorophenyl)ethyl)-2-(3-(difluoromethyl)-5,6-dihydro-4,5-(methano)-6,6-difluoro-cyclopenta[c]pyrazol-1(4H)-yl)acetamide], for which, in the data set “in vitro”, it took 23300 nM to reach half-maximal cytotoxicity (CC50 at 5 days). Moreover, the inhibition at 2 µM in the data set on HIV-IIIb worked out at 45%.
On the same counts, the results for `CN(C)CCNC(=O)c1cccc(-c2cccnc2[C@H](Cc2cc(F)cc(F)c2)NC(=O)Cn2nc(C(F)(F)F)c3c2CCCC3)c1` [Example 401C, (S)-3-(2-(2-(3,5-difluorophenyl)-1-(2-(3-(trifluoromethyl)-4,5,6,7-tetrahydro-1H-indazol-1-yl)acetamido)ethyl)pyridin-3-yl)-N-(2-(dimethylamino)ethyl)benzamide] are 9720 nM and 87%.
In turn, `O=C(Cc1c[nH]c2ccc(O)cc12)N[C@@H](Cc1cc(F)cc(F)c1)c1ncccc1-c1ccccc1` [Example 402, (S)—N-(2-(3,5-difluorophenyl)-1-(3-phenylpyridin-2-yl)ethyl)-2-(5-hydroxy-1H-indol-3-yl)acetamide] had a CC50 at 5 days in “in vitro” of 24800 nM. Further, the inhibition at 2 µM with HIV-IIIb was 92%.
On the same counts, the results for `NC(=O)c1cc(-c2cccnc2[C@H](Cc2cc(F)cc(F)c2)NC(=O)Cn2nc(C=O)c3c2C2CCC3C2)ccc1F` (stereo partly drawn) [Example 403, (S)-5-(2-(2-(3,5-difluorophenyl)-1-(2-(4,5,6,7-tetrahydro-3-formyl-4,7-(methano)indazol-1-yl)acetamido)ethyl)pyridin-3-yl)-2-fluorobenzamide] are 10500 nM and 112%.
Consider `Cc1cc(F)ccc1-c1cccnc1[C@H](Cc1cc(F)cc(F)c1)NC(=O)Cc1c[nH]c2ccc(F)cc12` [Example 404, (S)—N-(2-(3,5-difluorophenyl)-1-(3-(4-fluoro-2-methylphenyl)pyridin-2-yl)ethyl)-2-(5-fluoro-1H-indol-3-yl)acetamide], for which, in “in vitro”, half-maximal cytotoxicity (CC50 at 5 days) was put at 44600 nM. Also, the inhibition at 2 µM with HIV-IIIb was determined as 0%.
`CNC(=O)c1ccc(-c2cccnc2[C@H](Cc2cc(F)cc(F)c2)NC(=O)Cc2c[nH]c3ccc(F)cc23)cc1Cl` [Example 405, (S)-2-chloro-4-(2-(2-(3,5-difluorophenyl)-1-(2-(5-fluoro-1H-indol-3-yl)acetamido)ethyl)pyridin-3-yl)-N-methylbenzamide] came in with a CC50 at 5 days in the data set “in vitro” of 21100 nM. In addition, the inhibition at 2 µM in the data set with HIV-IIIb is 11%.
With `O=C(Cc1c[nH]c2ccc(F)cc12)N[C@@H](Cc1cc(F)cc(F)c1)c1ncccc1-c1ccc(F)c(F)c1` [Example 406, (S)—N-(2-(3,5-difluorophenyl)-1-(3-(3,4-difluorophenyl)pyridin-2-yl)ethyl)-2-(5-fluoro-1H-indol-3-yl)acetamide], in the data set “in vitro”, the CC50 at 5 days amounted to 11400 nM. The inhibition at 2 µM with HIV-IIIb is 27%.
With `O=C(Cn1nc(C(F)(F)F)c2c1CCCC2)N[C@@H](Cc1cc(F)cc(F)c1)c1ncccc1-c1cnc2[nH]ccc2c1` [Example 407, (S)—N-(1-(3-(1H-pyrrolo[2,3-b]pyridin-5-yl)pyridin-2-yl)-2-(3,5-difluorophenyl)ethyl)-2-(3-(trifluoromethyl)-4,5,6,7-tetrahydro-1H-indazol-1-yl)acetamide], the half-maximal cytotoxic concentration (CC50) at 5 days in the data set “in vitro” came to 12000 nM. In addition, the inhibition at 2 µM with HIV-IIIb came out at 102%.
